pIC50: −log10 of the molar value.
What was measured:
[1] = target: PDGFRβ kinase, purified cytoplasmic domain PDGFR-b protein (Homo sapiens (Human), UniProt P09619); experiment: PDGFRβ Kinase Assay; type: biochemical; conditions: 36 μM ATP, poly-Glu-Tyr (4:1) substrate, 60 minute incubation at 30° C.
Procedure: (§1) Biochemical PDGFRβ kinase assays were performed in 96 well microtiter plates that were coated overnight with 75 μg of poly-Glu-Tyr (4:1) in 10 mM Phosphate Buffered Saline (PBS), pH 7.4. The coated plates were washed with 2 mls per well PBS+0.05% Tween-20 (PBS-T), blocked by incubation with PBS containing 1% BSA, then washed with 2 mls per well PBS-T prior to starting the reaction. Reactions were carried out in 100 μL reaction volumes containing 36 μM ATP in kinase buffer (50 mM Hepes buffer pH 7.4, 20 mM MgCl2, 0.1 mM MnCl2 and 0.2 mM Na3VO4). Test compounds were reconstituted in 100% DMSO and added to the reaction to give a final DMSO concentration of 5%. Reactions were initiated by the addition 20 ul per well of kinase buffer containing 200-300 ng purified cytoplasmic domain PDGFR-b protein (Millipore). Following a 60 minute incubation at 30° C., the reactions were washed 2 mls per well PBS-T. 100 μl of a monoclonal anti-phosphotyrosine antibody-peroxidase conjugate diluted 1:10,000 in PBS-T was added to the wells for 30 minutes. Following a 2 mls per well wash with PBS-Tween-20, 100 μl of O-Phenylenediamine Dihydrochloride in phosphate-citrate buffer, containing urea hydrogen peroxide, was added to the wells for 7-10 minutes as a colorimetric substrate for the peroxidase. The reaction was terminated by the addition of 100 μl of 2.5N H2SO4 to each well and read using a microplate ELISA reader set at 492 nm. IC50 values for compound inhibition were calculated directly from graphs of optical density (arbitrary units) versus compound concentration following subtraction of blank values.

[2] = target: VEGFR2 (KDR) kinase, purified cytoplasmic domain KDR protein (Homo sapiens (Human), UniProt P35968); experiment: VEGFR2 Kinase Assay; type: biochemical; conditions: 2.7 μM ATP, poly-Glu-Tyr (4:1) substrate, 15 minute incubation at 30° C.
Chain of VEGFR2 (KDR) kinase, purified cytoplasmic domain KDR protein (P35968 786-1356, species assumed): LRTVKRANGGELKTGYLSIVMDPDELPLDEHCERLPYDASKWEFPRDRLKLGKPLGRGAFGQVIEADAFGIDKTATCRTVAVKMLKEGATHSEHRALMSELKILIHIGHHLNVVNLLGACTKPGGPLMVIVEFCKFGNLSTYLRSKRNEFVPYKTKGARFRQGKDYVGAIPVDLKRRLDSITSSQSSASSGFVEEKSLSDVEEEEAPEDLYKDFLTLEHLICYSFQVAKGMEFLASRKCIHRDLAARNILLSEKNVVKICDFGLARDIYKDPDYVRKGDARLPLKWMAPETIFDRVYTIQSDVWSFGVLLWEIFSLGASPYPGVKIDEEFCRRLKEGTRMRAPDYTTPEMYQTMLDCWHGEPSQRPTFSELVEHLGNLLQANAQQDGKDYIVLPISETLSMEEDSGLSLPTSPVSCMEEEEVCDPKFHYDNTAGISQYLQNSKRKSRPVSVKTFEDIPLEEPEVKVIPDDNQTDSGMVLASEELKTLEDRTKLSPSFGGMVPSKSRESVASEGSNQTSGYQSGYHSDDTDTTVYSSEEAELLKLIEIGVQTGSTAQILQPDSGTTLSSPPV
Procedure: as §1, with “KDR” for “PDGFRβ”, “μg/well” for “μg”, “2.7” for “36”, “KDR” for “PDGFR-b”, “(BPS Bioscience, San Diego, Calif.).” for “(Millipore).”, “15” for “60”

Chain of PDGFRβ kinase, purified cytoplasmic domain PDGFR-b protein (P09619 554-1106): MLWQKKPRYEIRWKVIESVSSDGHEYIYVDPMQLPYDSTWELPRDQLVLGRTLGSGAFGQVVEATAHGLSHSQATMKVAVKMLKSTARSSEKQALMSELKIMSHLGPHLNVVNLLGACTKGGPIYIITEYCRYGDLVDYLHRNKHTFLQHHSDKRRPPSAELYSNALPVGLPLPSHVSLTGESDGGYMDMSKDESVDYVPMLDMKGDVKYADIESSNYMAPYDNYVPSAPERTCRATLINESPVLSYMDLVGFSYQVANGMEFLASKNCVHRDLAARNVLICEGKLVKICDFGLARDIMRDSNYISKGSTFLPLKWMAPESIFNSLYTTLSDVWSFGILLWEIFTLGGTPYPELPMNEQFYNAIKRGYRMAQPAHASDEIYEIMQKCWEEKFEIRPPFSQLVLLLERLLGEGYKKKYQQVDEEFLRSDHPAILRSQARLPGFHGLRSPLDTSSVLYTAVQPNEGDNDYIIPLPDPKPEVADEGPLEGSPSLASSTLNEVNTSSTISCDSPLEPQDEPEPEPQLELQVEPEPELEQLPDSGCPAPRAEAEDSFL

| Structure (SMILES) | pIC50 [1] | pIC50 [2] |
| --- | --- | --- |
| NC(=O)c1c(-c2cccc(NC(=O)Nc3cccc(C(F)(F)F)c3)c2)[nH]c2ccccc12 [Compound 8, 2-{3-[({[3-(trifluoromethyl)phenyl]amino}carbonyl)amino]phenyl}-1H-indole-3-carboxamide] |  | < 5.00 |
| Cc1ccoc1C(=O)Nc1cccc(-c2[nH]c3ccccc3c2C(N)=O)c1 [Compound 9, 2-{3-[(3-methyl-2-furoyl)amino]phenyl}-1H-indole-3-carboxamide] | < 5.00 | < 5.00 |
| Cc1cccc(NC(=O)Nc2cccc(-c3[nH]c4ccccc4c3C(N)=O)c2)c1 [Compound 7, 2-[3-({[(3-methylphenyl)amino]carbonyl}amino)phenyl]-1H-indole-3-carboxamide] |  | < 5.00 |
| Cc1ccc(F)c(C(=O)Nc2cccc(-c3[nH]c4ccccc4c3C(N)=O)c2)c1 [Compound 10, 2-{3-[(2-fluoro-5-methylbenzoyl)amino]phenyl}-1H-indole-3-carboxamide] |  | < 5.00 |
| Cc1ccoc1C(=O)Nc1ccc(-c2[nH]c3ccccc3c2C(N)=O)cc1 [Compound 5, 2-{4-[(3-methyl-2-furoyl)amino]phenyl}-1H-indole-3-carboxamide] |  | < 5.00 |
| Cc1ccc(F)c(C(=O)Nc2ccc(-c3[nH]c4ccccc4c3C(N)=O)cc2)c1 [Compound 6, 2-{4-[(2-fluoro-5-methylbenzoyl)amino]phenyl}-1H-indole-3-carboxamide] |  | < 5.00 |

Stronger by pIC50 [2], values ahead:

| pIC50 [1] | pIC50 [2] | Structure (SMILES) |
| --- | --- | --- |
| 7.43 | 8.15 | CCc1cccc(NC(=O)Nc2ccc(-c3[nH]c4ccccc4c3C(N)=O)cc2)c1 [Compound 4, 2-[4-({[(3-ethylphenyl)amino]carbonyl}amino)phenyl]-1H-indole-3-carboxamide] |
| 6.57 | 7.77 | Cc1ccc(F)c(NC(=O)Nc2ccc(-c3[nH]c4ccccc4c3C(N)=O)cc2)c1 [Compound 3, 2-[4-({[(2-fluoro-5-methylphenyl)amino]carbonyl}amino)phenyl]-1H-indole-3-carboxamide] |
| 7.21 | 8.15 | NC(=O)c1c(-c2ccc(NC(=O)Nc3cccc(C(F)(F)F)c3)cc2)[nH]c2ccccc12 [Compound 2, 2-{4-[({[3-(trifluoromethyl)phenyl]amino}carbonyl)amino]phenyl}-1H-indole-3-carboxamide] |
| 6.85 | 7.89 | Cc1cccc(NC(=O)Nc2ccc(-c3[nH]c4ccccc4c3C(N)=O)cc2)c1 [Compound 1, 2-[4-({[(3-methylphenyl)amino]carbonyl}amino)phenyl]-1H-indole-3-carboxamide] |
